Results reported in patent US7767659B2, “Synthesis of naturally occurring ecteinascidins and related compounds” (Pharma Mar, S.A., priority 2002, dated 2010).

Assays:
[1] = system: A-549; assay: cells; conditions: Homo sapiens, A549, 48 h; for GI50: read-out: A549 GI50; for CC50: read-out: A549 LC50; for IC (TGI): read-out: A549 TGI
Summary of the method: (§1)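 Colorimetric SRB read (490 nm) on triplicate wells after 48 h at 37 °C, 5% CO2. Dose range 10 to 10^−8 μg/ml; 5×10^3 cells/well pre-attached 18 h.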

[2] = system: HT-29; assay: cells; conditions: Homo sapiens, HT-29, 48 h; for GI50: read-out: HT29 GI50; for CC50: read-out: HT29 LC50; for IC (TGI): read-out: HT29 TGI
Summary of the method: as §1

[3] = system: LoVo; assay: cells; conditions: Homo sapiens, LoVo, 48 h; for GI50: read-out: LOVO GI50; for CC50: read-out: LOVO LC50; for IC (TGI): read-out: LOVO TGI
Summary of the method: as §1

[4] = system: DU-145; assay: Inhibition of cells growth by colorimetric assay (SRB); conditions: Homo sapiens, DU-145, 48 h; for GI50: read-out: DU145 GI50; for CC50: read-out: DU145 LC50; for IC (TGI): read-out: DU145 TGI
Summary of the method: as §1

[5] = system: HeLa-APL; assay: as above; conditions: Homo sapiens, 48 h; for GI50: read-out: HELA-APL GI50; for CC50: read-out: HELA-APL LC50; for IC (TGI): read-out: HELA-APL TGI
Summary of the method: as §1

[6] = system: HeLa; assay: as above; conditions: Homo sapiens, HeLa, 48 h; for GI50: read-out: HELA GI50; for CC50: read-out: HELA LC50; for IC (TGI): read-out: HELA TGI
Summary of the method: as §1

[7] = system: IGROV-1; assay: as above; conditions: Homo sapiens, IGROV-1, 48 h; for GI50: read-out: IGROV GI50; for CC50: read-out: IGROV LC50; for IC (TGI): read-out: IGROV TGI
Summary of the method: as §1

[8] = system: IGROV-ET; assay: as above; conditions: Homo sapiens, 48 h; for GI50: read-out: IGROV-ET GI50; for CC50: read-out: IGROV-ET LC50; for IC (TGI): read-out: IGROV-ET TGI
Summary of the method: as §1

[9] = system: K-562; assay: as above; conditions: Homo sapiens, K562, 48 h; for GI50: read-out: K562 GI50; for CC50: read-out: K562 LC50; for IC (TGI): read-out: K562 TGI
Summary of the method: as §1

[10] = system: LNCaP; assay: as above; conditions: Homo sapiens, LNCaP, 48 h; for GI50: read-out: LNCAP GI50; for CC50: read-out: LNCAP LC50; for IC (TGI): read-out: LNCAP TGI
Summary of the method: as §1

[11] = system: LoVo-Dox; assay: as above; conditions: Homo sapiens, 48 h; for GI50: read-out: LOVO-DOX GI50; for CC50: read-out: LOVO-DOX LC50; for IC (TGI): read-out: LOVO-DOX TGI
Summary of the method: as §1

[12] = system: PANC-1; assay: as above; conditions: Homo sapiens, PANC-1, 48 h; for GI50: read-out: PANC-1 GI50; for CC50: read-out: PANC-1 LC50; for IC (TGI): read-out: PANC-1 TGI
Summary of the method: as §1

[13] = system: SK-BR-3; assay: as above; conditions: Homo sapiens, SK-BR-3, 48 h; for GI50: read-out: SK-BR3 GI50; for CC50: read-out: SK-BR3 LC50; for IC (TGI): read-out: SK-BR3 TGI
Summary of the method: as §1

[14] = system: SK-MEL-28; assay: as above; conditions: Homo sapiens, SK-MEL-28, 48 h; for GI50: read-out: MEL-28 GI50; for CC50: read-out: MEL-28 LC50; for IC (TGI): read-out: MEL-28 TGI
Summary of the method: as §1

C=CCN1[C@@H]2c3c(cc(C)c(OC)c3O)C[C@H]1[C@H](C#N)N1C2[C@@H]2SC[C@]3(NCCc4cc(OC(=O)OC(C)(C)C)c(OC)cc43)C(=O)OC[C@H]1c1c3c(c(C)c(OC(=O)/C=C/c4ccccc4)c12)OCO3 (some centres unmarked) [compound 47]
GI50 [1]: 10.2 µM | CC50 [1]: 10.2 µM | IC (TGI) [1]: 10.2 µM | GI50 [2]: 10.2 µM | CC50 [2]: 10.2 µM | IC (TGI) [2]: 10.2 µM | GI50 [3]: 9.16 µM | CC50 [3]: 10.2 µM | IC (TGI) [3]: 10.2 µM | GI50 [4]: 4.12 µM | CC50 [4]: 10.2 µM | IC (TGI) [4]: 10.2 µM | GI50 [5]: 3.74 µM | CC50 [5]: 10.2 µM | GI50 [6]: 4.1 µM | CC50 [6]: 10.2 µM | IC (TGI) [6]: 10.2 µM | GI50 [7]: 4.22 µM | CC50 [7]: 10.2 µM | IC (TGI) [7]: 10.2 µM | GI50 [8]: 4.92 µM | CC50 [8]: 10.2 µM | IC (TGI) [8]: 10.2 µM | GI50 [9]: 0.173 µM | CC50 [9]: 10.2 µM | IC (TGI) [9]: 2.32 µM | GI50 [10]: 0.449 µM | CC50 [10]: 10.2 µM | IC (TGI) [10]: 2.92 µM | GI50 [11]: 10.2 µM | CC50 [11]: 10.2 µM | IC (TGI) [11]: 10.2 µM | GI50 [12]: 10.2 µM | CC50 [12]: 10.2 µM | IC (TGI) [12]: 10.2 µM | GI50 [13]: 0.301 µM | CC50 [13]: 10.2 µM | IC (TGI) [13]: 1.37 µM | GI50 [14]: 8.7 µM | CC50 [14]: 10.2 µM | IC (TGI) [14]: 10.2 µM

C=CCN1[C@@H]2c3c(cc(C)c(OC)c3O)C[C@H]1[C@H](O)N1C2[C@@H]2SCC(NC(C)=O)C(=O)OC[C@H]1c1c3c(c(C)c(OC(C)=O)c12)OCO3 (some centres unmarked) [compound 41]
GI50 [1]: 0.0431 µM | CC50 [1]: 0.125 µM | IC (TGI) [1]: 0.0735 µM | GI50 [2]: 0.0427 µM | CC50 [2]: 14.7 µM | IC (TGI) [2]: 0.12 µM | GI50 [3]: 0.0378 µM | CC50 [3]: 14.7 µM | IC (TGI) [3]: 0.094 µM | GI50 [4]: 0.0453 µM | CC50 [4]: 0.274 µM | IC (TGI) [4]: 0.0755 µM | GI50 [5]: 0.0301 µM | CC50 [5]: 0.132 µM | IC (TGI) [5]: 0.0631 µM | GI50 [6]: 0.0282 µM | CC50 [6]: 0.12 µM | IC (TGI) [6]: 0.0581 µM | GI50 [7]: 0.0157 µM | CC50 [7]: 0.121 µM | IC (TGI) [7]: 0.0437 µM | GI50 [8]: 0.0418 µM | CC50 [8]: 14.7 µM | IC (TGI) [8]: 0.0871 µM | GI50 [9]: 0.0204 µM | CC50 [9]: 0.125 µM | IC (TGI) [9]: 0.0505 µM | GI50 [10]: 0.00095 µM | CC50 [10]: 0.0928 µM | IC (TGI) [10]: 0.0314 µM | GI50 [11]: 0.27 µM | CC50 [11]: 14.7 µM | IC (TGI) [11]: 1.18 µM | GI50 [12]: 0.0377 µM | CC50 [12]: 14.7 µM | IC (TGI) [12]: 0.1 µM | GI50 [13]: 0.0323 µM | CC50 [13]: 0.352 µM | IC (TGI) [13]: 0.0722 µM | GI50 [14]: 0.0337 µM | CC50 [14]: 0.123 µM | IC (TGI) [14]: 0.0645 µM

COC1=C(C)C(=O)C2=C(C1=O)C1C3[C@@H]4SCC(=O)C(=O)OC[C@@H](c5c6c(c(C)c(OC(C)=O)c54)OCO6)N3[C@@H](O)[C@H](C2)N1C (some centres unmarked) [Et-594-quinone]
GI50 [1]: 2.35 µM | CC50 [1]: 10.3 µM | IC (TGI) [1]: 4.91 µM | GI50 [2]: 0.653 µM | CC50 [2]: 16.3 µM | IC (TGI) [2]: 1.71 µM | GI50 [3]: 0.759 µM | CC50 [3]: 16.3 µM | IC (TGI) [3]: 2.91 µM | GI50 [4]: 1.99 µM | CC50 [4]: 14.6 µM | IC (TGI) [4]: 5.39 µM | GI50 [5]: 0.398 µM | CC50 [5]: 1.14 µM | IC (TGI) [5]: 0.674 µM | GI50 [6]: 0.343 µM | CC50 [6]: 1.12 µM | IC (TGI) [6]: 0.62 µM | GI50 [7]: 0.452 µM | CC50 [7]: 3.64 µM | IC (TGI) [7]: 0.958 µM | GI50 [8]: 4.37 µM | CC50 [8]: 16.3 µM | IC (TGI) [8]: 9.11 µM | GI50 [9]: 0.137 µM | CC50 [9]: 1.62 µM | IC (TGI) [9]: 0.478 µM | GI50 [10]: 0.274 µM | CC50 [10]: 0.901 µM | IC (TGI) [10]: 0.498 µM | GI50 [11]: 6.27 µM | CC50 [11]: 16.3 µM | IC (TGI) [11]: 13.1 µM | GI50 [12]: 1.58 µM | CC50 [12]: 14.9 µM | IC (TGI) [12]: 4.86 µM | GI50 [13]: 0.302 µM | CC50 [13]: 1.16 µM | IC (TGI) [13]: 0.593 µM | GI50 [14]: 0.413 µM | CC50 [14]: 1.32 µM | IC (TGI) [14]: 0.738 µM

C=CCN1[C@@H]2c3c(cc(C)c(OC)c3O)C[C@H]1[C@H](C#N)N1C2[C@@H]2SC[C@]3(NCCc4cc(OC(=O)OC(C)(C)C)c(OC)cc43)C(=O)OC[C@H]1c1c3c(c(C)c(OC(=O)CCCCCCC)c12)OCO3 (some centres unmarked) [compound 48]
GI50 [1]: 8.1 µM | CC50 [1]: 10.2 µM | IC (TGI) [1]: 10.2 µM | GI50 [2]: 6.71 µM | CC50 [2]: 10.2 µM | IC (TGI) [2]: 10.2 µM | GI50 [3]: 4.01 µM | CC50 [3]: 10.2 µM | IC (TGI) [3]: 10.2 µM | GI50 [4]: 2.55 µM | CC50 [4]: 10.2 µM | IC (TGI) [4]: 6.26 µM | GI50 [5]: 1.87 µM | CC50 [5]: 7.87 µM | IC (TGI) [5]: 3.83 µM | GI50 [6]: 2.17 µM | CC50 [6]: 10.2 µM | IC (TGI) [6]: 5.11 µM | GI50 [7]: 3.52 µM | CC50 [7]: 10.2 µM | IC (TGI) [7]: 10.2 µM | GI50 [8]: 3.72 µM | CC50 [8]: 10.2 µM | IC (TGI) [8]: 10.2 µM | GI50 [9]: 0.515 µM | CC50 [9]: 10.2 µM | IC (TGI) [9]: 2.73 µM | GI50 [10]: 1.67 µM | CC50 [10]: 6.31 µM | IC (TGI) [10]: 3.24 µM | GI50 [11]: 10.2 µM | CC50 [11]: 10.2 µM | IC (TGI) [11]: 10.2 µM | GI50 [12]: 4.42 µM | CC50 [12]: 10.2 µM | IC (TGI) [12]: 10.2 µM | GI50 [13]: 0.682 µM | CC50 [13]: 10.2 µM | IC (TGI) [13]: 4 µM | GI50 [14]: 3.19 µM | CC50 [14]: 10.2 µM | IC (TGI) [14]: 10.2 µM
